# Results published in US20250376459A1, “CRYSTALLINE FORMS OF A TYK2 INHIBITOR AND USES THEREOF” (Alumis Inc., priority 2022, published 2025).
# Where a name gives a salt, the structure may show the parent alone. Read-outs that look alike come from different tables or passages of the source.
# Experiments:
# Assay type in all cases: physicochemical
# [1] = solid form chemical and physical stability
# [2] = solubility in SGF, FeSSIF, FaSSIF and water
# [3] = dynamic vapor sorption (DVS) analysis
# Protocol: Dynamic vapor sorption analysis (DVS) was performed on a DVS Intrinsic PLUS (SMS, UK). The sample was placed into a tared sample chamber and automatically weighed. The sample was dried at 40° C. until the dm/dt was less than 0.002% and cooled to 25° C. The instrument parameters were as follows: step time (min)=60 min; sample temperature=25 C; cycle=full cycle; adsorption (% RH)=0, 10, 20, 30, 40, 50, 60, 70, 80, 90; desorption (% RH)=80, 70, 60, 50, 40, 30, 20, 10, 0; saved data rate=5 sec; total flow rate=200 sccm; post experimental flow rate=200 sccm.
# [4] = about 0% to about 80% RH at 25° C.
# [5] = about 0% to about 90% RH at 25° C.
time chemically and physically stable in the solid form ([1]; 40° C./75% RH),time chemically and physically stable in the solid form ([1]; 60° C.),"salt dissociation in solubility media ([2]; FaSSIF, FeSSIF and water)","solubility ([2]; FaSSIF, read-out: solubility in FaSSIF)","solubility ([2]; FeSSIF, read-out: solubility in FeSSIF)","solubility ([2]; SGF, simulated gastric fluid, read-out: solubility in SGF)",hygroscopicity [3],"DVS reversable total mass change [3, 4]","DVS reversable total mass change [3, 5]",form change after DVS analysis [3],SMILES
at least 10 days,at least 10 days,dissociate to the free base,1 to 2 µg/mL,20 to 30 µg/mL,> 4100 µg/mL,only slightly hygroscopic,about 0.6 wt. %,about 1.3 wt. %,No form change,"[2H]C([2H])([2H])CC(=O)c1cnc(NC(=O)C2CC2)cc1Nc1cccc(-c2ncn(C([2H])([2H])[2H])n2)c1OC [Form 1-1, N-(4-((2-methoxy-3-(1-(methyl-d3)-1H-1,2,4-triazol-3-yl)phenyl)amino)-5-(propanoyl-3,3,3-d3)pyridin-2-yl) cyclopropanecarboxamide, methanesulfonic acid salt]"
,,,,,,,about 0.6 wt. %,about 0.7 wt. %,No form change,"[2H]C([2H])([2H])CC(=O)c1cnc(NC(=O)C2CC2)cc1Nc1cccc(-c2ncn(C([2H])([2H])[2H])n2)c1OC [Form 6, N-(4-((2-methoxy-3-(1-(methyl-d3)-1H-1,2,4-triazol-3-yl)phenyl)amino)-5-(propanoyl-3,3,3-d3)pyridin-2-yl) cyclopropanecarboxamide, p-toluenesulfonic acid salt]"
,,,,,,,about 0.9 wt. %,about 1.4 wt. %,No form change,"[2H]C([2H])([2H])CC(=O)c1cnc(NC(=O)C2CC2)cc1Nc1cccc(-c2ncn(C([2H])([2H])[2H])n2)c1OC [Form 5-2, N-(4-((2-methoxy-3-(1-(methyl-d3)-1H-1,2,4-triazol-3-yl)phenyl)amino)-5-(propanoyl-3,3,3-d3)pyridin-2-yl) cyclopropanecarboxamide, sulfuric acid salt]"
